One may read the inhibition as the relative decrease from the control value, in per cent. A word on the IC50: it is the concentration that inhibits the measured activity by half. Read a high IC50 as weaker potency.

Test system in one experiment: not listed separately
Briefly: Inhibitory activity against [Ca(2+)]-impermeable Ionotropic glutamate receptor AMPA was determined. As to conditions: concentration not given here.
`O=C(Cc1cccc2ccccc12)N1CCC(CNCCCCNCC2CCCCC2)CC1` registered an inhibition of 4.4%.

In another experiment the target is Glutamate receptor ionotropic, AMPA (Rattus norvegicus) (UniProt P19491+P19492+P19493+P19490). Kind of experiment: Antagonistic activity against Ca++permeable Ionotropic glutamate receptor AMPA as concentration of compound that reduces the inward current induced by kainate by 50% in Xenopus oocytes. As to conditions: Oocyte; concentration not given here. In kind it is functional, cell-based.
Turning to `O=C(Cc1cccc2ccccc12)N1CCC(CNCCCCNCCCO)CC1`, the inhibition is 44%.
`O=C(Cc1cccc2ccccc12)N1CCC(CCCCCCNCC2CCCCC2)CC1` yielded an inhibition of 42%.
The same measure, in the same setting: as for `NCCCCNCC1CCN(C(=O)Cc2cccc3ccccc23)CC1`, the figure is 54%.
In the case of `O=C(Cc1cccc2ccccc12)N1CCC(CNCCCCCCC2CCCCC2)CC1`, the inhibition was found to be 1%.
On the same count and under the same terms, as for `O=C(Cc1cccc2ccccc12)N1CCC(CNCCCCNCC2CCOCC2)CC1`, the figure is 35%.

Another experiment addresses Glutamate receptor ionotropic, AMPA (Rattus norvegicus, UniProt P19490+P19491+P19492+P19493).
Conditions: not given
In turn, `CCCNCCCCNCC1CCN(C(=O)Cc2cccc3ccccc23)CC1` gave a 50% inhibitory concentration (IC50) of 740 nM. This counts as sub-micromolar.
Still for that read-out and setting: as for `O=C(Cc1cccc2ccccc12)N1CCC(CNCCCCN2CCCCC2)CC1`, the figure is 390 nM.
On to `CC(C)NCCCCNCC1CCN(C(=O)Cc2cccc3ccccc23)CC1`, for which the midpoint of inhibition, the IC50, lay at 730 nM.
`CC(C)CNCCCCNCC1CCN(C(=O)Cc2cccc3ccccc23)CC1` showed a concentration for half-maximal inhibition (IC50) of 790 nM.
On the same count and under the same terms, next, `O=C(Cc1cccc2ccccc12)N1CCC(CNCCCCNCC2CCCCC2)CC1`: 250 nM; `CN(C)CCCCNCC1CCN(C(=O)Cc2cccc3ccccc23)CC1`: 530 nM.

The species named for another experiment is Rattus norvegicus. The note with it: dose 3 mg/kg; route intravenous.
Description: Change in systolic blood pressure before and after intravenous administration of 3 mg/kg dose in rats
As for `CCCNCCCCNCC1CCN(C(=O)Cc2cccc3ccccc23)CC1`, the “Delta SBP” value is 9 mmHg.
The same measure, in the same setting: as for `O=C(Cc1cccc2ccccc12)N1CCC(CNCCCCNCCCO)CC1`, the figure is -6 mmHg.
The same measure, in the same setting: next, `O=C(Cc1cccc2ccccc12)N1CCC(CNCCCCN2CCCCC2)CC1`: 4 mmHg; `CC(C)NCCCCNCC1CCN(C(=O)Cc2cccc3ccccc23)CC1`: 10 mmHg.
On the same count and under the same terms, as for `CC(C)CNCCCCNCC1CCN(C(=O)Cc2cccc3ccccc23)CC1`, the figure is 7 mmHg.
As to `O=C(Cc1cccc2ccccc12)N1CCC(CNCCCCNCCN2CCCCC2)CC1`, the “Delta SBP” value was found to be 5 mmHg.
Same read-out and setting: as for `O=C(Cc1cccc2ccccc12)N1CCC(CNCCCCNCC2CCCCC2)CC1`, the figure is 11 mmHg; as for `CN(C)CCCCNCC1CCN(C(=O)Cc2cccc3ccccc23)CC1`, 12 mmHg; as for `O=C(Cc1cccc2ccccc12)N1CCC(CCCCCCNCC2CCCCC2)CC1`, -35 mmHg.
The same measure, in the same setting: as for `NCCCCNCC1CCN(C(=O)Cc2cccc3ccccc23)CC1`, the figure is -53 mmHg; as for `O=C(Cc1cccc2ccccc12)N1CCC(CNCCCCCCC2CCCCC2)CC1`, -50 mmHg; as for `O=C(Cc1cccc2ccccc12)N1CCC(CNCCCCNCC2CCOCC2)CC1`, -22 mmHg.
